Results from patent US20240352426A1, “Accelerated Protocol for the Differentiation of Podocytes from Human Pluripotent Stem Cells” (Vanderbilt University, priority 2021, published 2024).

Test system: iPSC-derived primitive streak cells
Assay: Flow cytometry of differentiation markers after CHIR99021 treatment of primitive streak cells
Assay type: cell-based, human
Protocol: iPSCs seeded onto Geltrex-coated plates at a density of 100,000 cells/cm^2 were treated with mTesR media with 10 μM ROCKi for the first 24 h. On Day 0, cells were treated with base media (DMEM/F12 with GlutaMax, 1×B27) supplemented with primitive streak induction factors including 100 ng/ml Activin A and 3 μM CHIR99021. On Day 2, cells were treated with base media including 8 μM CHIR99021 to induce intermediate mesoderm until Day 5, followed by treatment with base medium containing 200 ng/ml FGF9 and 1 mg/ml Heparin (Sigma-Aldrich, St. Louis, Missouri). On Day 7, to induce the nephron progenitors, the cells were dissociated using Accutase and replated (1:4) onto laminin-511-coated plates. The podocyte phenotype was induced using base media supplemented with 100 ng/ml BMP7, 100 ng/ml Activin A, 50 ng/ml VEGF, 3 μM CHIR99021, and 0.1 μM RA and cells were assayed on Day 12. The detailed methods for deriving the podocytes was carefully described elsewhere (Bejoy J, et al. STAR protocols. 2021 2 (4): 100898).
To evaluate the expression of proteins of interest quantitatively, the cells were harvested by Accutase treatment and analyzed by flow cytometry. […] The cells were acquired with BD FACSCanto II flow cytometer (BD Biosciences, Beckton, New Jersey) and analyzed against isotype controls using FlowJo software. […]

SMILES: Cc1c[nH]c(-c2cnc(NCCNc3ccc(C#N)cn3)nc2-c2ccc(Cl)cc2Cl)n1 [CHIR99021]
- population of MIXL1+ cells (flow cytometry) (8 μM CHIR99021 for 2-3 days on primitive streak cells): 26.7%
- cells expressing PAX8 (flow cytometry) (day 5, after 8 μM CHIR99021, intermediate mesoderm stage): 95.9%
